# Results published in paper PMC11747586, “Synthesis and Investigation of Peptide–Drug Conjugates Comprising Camptothecin and a Human Protein‐Derived Cell‐Penetrating Peptide” (Chemical Biology & Drug Design, 2025).
# Positions of bridges follow the written chain, without caps; N, C: chain ends. Residues, ends and D or L forms follow the SMILES beside them.
# Key:
# [1] = Cytotoxicity (resazurin) against cultured HaCaT noncancerous cells
# Procedure: (§1) Cell death was measured using resazurin, with 0.1% (v/v) Triton X‐100 as a control for 100% cell death. Data points are expressed as mean ± SD for at least two biological replicates. Dose response curves were fitted using [inhibitor] versus response with variable slope, Graphpad Prism v10. […] RBC lysis was determined by measuring released hemoglobin, with 0.1% (v/v) Triton X‐100 as a control for 100% cell lysis. Melittin was included as a membranolytic control. Data points are expressed as mean ± SD for two technical replicates. Dose response curves were fitted using [inhibitor] versus response with variable slope, Graphpad Prism v10. […] CC50 values are expressed as mean (SEM). […]
# (§2) HaCaT cells were grown in DMEM medium and HT144 cells were grown in RPMI medium supplemented with 2 mM L-glutamine and 10 mM sodium pyruvate. Media were supplemented with 10% (v/v) fetal bovine serum, 100 units/mL of penicillin and […] of streptomycin. Flasks of cultured cells were maintained in a humidified incubator (37 °C, 5% CO2) and passaged every 2–3 days to maintain cultures between 20–90% confluence. Cell line identity was verified by comparing […]
# (§3) STR profiles of the cell lines against database entries from the DSMZ-German collection of microorganisms and cell cultures, GmBH https://celldive.dsmz.de/str/browse.
# (§4) Toxicity to the HT144 and HaCaT cell lines was tested following peptide treatment by measuring the metabolism of resazurin into fluorescent resorufin. The assays were performed with 5000 cells/well (96-well plate) in serum free media. Cells were incubated with serially diluted peptides, PDCs or drugs for 72 h or 24 h (37 °C, 5% CO2). PBS and 0.1% (v/v) Triton X-100 were included as controls for 0% and 100% toxicity. Resazurin was added at 0.02% (w/v) final concentration 2 h prior to the assay end point. Fluorescence (λex = 560 nm, λem = 585 nm) was measured using a Tecan infinite M1000Pro multiplate reader. Percentage cytotoxicity was calculated relative to 0% and 100% controls.
# (§5) Dose-response curves were fitted and CC50 values were determined using [inhibitor] vs response with four parameters with the top constrained to 100% (GraphPad Prism version 10.0.2). Data was collected as three biological replicates, with experiments conducted on different days.
# (§6) Red blood cell (RBC) lysis
# (§7) Human RBCs and serum were obtained from healthy volunteers via the Red Cross Lifeblood, Brisbane, Australia. RBCs were washed three times with PBS and stored in culture medium (RPMI
# [2] = system: HaCaT (noncancerous) cells; test: as above; conditions: read-out: CC50 HaCaT; 72 h incubation, resazurin; mean (SEM)
# Procedure: as §1, §2, §3, §4, §5, §6, §7
# [3] = Parallel artificial membrane permeability assay (PAMPA); assay type: in vitro ADME; conditions: PAMPA
# Procedure: FIGURE 4 (A) Membrane permeability and cellular uptake of PDCs, scaffold peptides, and CPT. Compounds were added to PAMPA wells (4 μM) and incubated for 4 h. Supernatant from apical and basolateral sides of the membrane were collected and analyzed using LC–MS. The amount in the combined soluble fractions was compared to the starting amount to determine % recovery, and the apparent permeability (Papp) was calculated as before (Sevin et al. [2013]). Data is expressed as mean ± SD from a single experiment with three technical replicates. (B) Internalization/cell membrane association of PDCs 12–14 and PDIP with HT144 cells. Cells were treated with PDIP or PDCs (4 μM) for 1 h, washed to remove extracellular compound, then extracted with 75% (v/v) MeCN in mQH2O (containing 1.75% (v/v) TFA), to recover soluble peptide or PDC from precipitated cell proteins. The relative amount of internalized peptide or PDC was determined by integrating area under the curve (AUC) for the [M + 6H]^6+ m/z peak (for the intact mass) using time of flight–mass spectrometry (see Figure S2). […] Data is expressed as mean ± SD from a single experiment with three technical replicates for each treatment and control and was analyzed with ANOVA (Tukey multiple comparisons; **p < 0.01, *p < 0.05). (C) Detection of intracellular CPT following 6 h treatment of HT144 cells with CPT and PDCs 12 and 14. […] Data is expressed as mean ± SD from a single experiment with three technical replicates for each treatment and was analyzed with ANOVA (Fisher multiple paired comparisons; **p < 0.01, *p < 0.05). TEXT PRINTED IN THE PICTURE: (A) PDIP: % recovered (soluble fractions): 94 | (A) 12: % recovered (soluble fractions): 58 | (A) 14: % recovered (soluble fractions): 33 | (A) 15: % recovered (soluble fractions): 40 | (A) c[A] PDIP: % recovered (soluble fractions): 34 | (A) CPT: % recovered (soluble fractions): 92 […]
# For the first assay, the PDCs (12–15), scaffold peptides and CPT (4 μM) were added to the apical side of PAMPA monolayers and incubated for 4 h. […] PDIP, CPT, and PDCs 12 and 14 had high permeability (Papp ≥ 2 × 10^−6 cm/s), highlighting that these PDCs maintain membrane permeability with the CPT cargo attached. […] Reliable permeability data were not obtained for PDC 13 because of poor recovery of the PDC from soluble fractions, and degradation during the 4 h PAMPA experiment. […] Instability of the carbonate linkage within CPT conjugates containing a dipeptide linker has been previously reported (Walker et al. [2002]), highlighting the potential incompatibility of this drug–linker combination for CPT PDCs. Considering the observed degradation of 13 in the cell‐free assay, it is also possible that extracellular degradation occurred during the cytotoxicity assays.
# Parallel artificial membrane permeability assay (PAMPA)
# PAMPA was performed according to the manufacturer instructions for the BD Gentest pre-coated PAMPA plate system (BD Biosciences), as previously described.16 Briefly, peptides and PDCs (4 μM in PBS) were added to the apical side of PAMPA wells and incubated for 4 h at 37 °C, 5% CO2 with 95% humidity. Soluble fractions were recovered from the apical and basolateral sides, and compound concentration was quantified using a Shimadzu LCMS-2020 instrument with a Phenomenex 5 µm C18 / 300 Å / 150 x 2 mm LC column. Data was collected from three technical replicates for each compound. The % recovery was determined from (combined from apical and basolateral fractions) relative to the starting concentration:
# Recovery rate : R (%) = (C஺ ×V஺ +C஻ ×V஻ )× 100 where CA and CB are the apical and basolateral concentrations (µM), VA and VB are the apical and basolateral volumes (mL), and C0 is the initial concentration (µM).
# The apparent permeability coefficient (Papp) was calculated using the following equations17 and where A is the membrane surface area (cm2): […]
compound,measurement,setting,value
"CC[C@H](C)[C@@H]1NC(=O)[C@H](CCCCN)NC(=O)[C@H](CCCCN)NC(=O)[C@H](Cc2ccc(O)cc2)NC(=O)[C@H](CC(C)C)NC(=O)[C@@H]2CCCN2C(=O)CNC(=O)CNC(=O)[C@@H](NC(=O)CN)CSSC[C@@H](C(=O)N[C@@H](CCC(=O)O)C(=O)N[C@@H](CO)C(N)=O)NC(=O)[C@H](CC(C)C)NC(=O)[C@H](CCCCN)NC(=O)[C@H](CCCCN)NC(=O)[C@H]([C@@H](C)CC)NC(=O)[C@H]([C@@H](C)CC)NC(=O)[C@H](CCCCN)NC(=O)[C@H](CCCCN)NC(=O)[C@H](Cc2ccc(O)cc2)NC(=O)[C@H](CC(C)C)NC(=O)[C@@H]2CCCN2C(=O)[C@H](C)NC(=O)CNC(=O)CNC(=O)[C@H](CO)NC(=O)CNC(=O)CNC(=O)[C@H](CO)NC(=O)[C@H](CCC(=O)O)NC(=O)[C@H](CC(C)C)NC(=O)[C@H](CC(C)C)NC(=O)[C@H](CCCCN)NC(=O)[C@H](CCCCN)NC(=O)[C@H]([C@@H](C)CC)NC1=O [PDIP, reference compound] (H-GCGGPLYKKIIKKLLESGGSGGAPLYKKIIKKLCES-NH2; disulfide 2-34; N-terminus assumed)",CC50,[1],> 32 µM
same,CC50,[2],≥ 32 µM
same,"Papp at 4 h, 4 μM",[3],≥ 2 ×10⁻⁶ cm/s
